Experimental findings from paper doi:10.1101/2024.02.23.581746 (2024) are described below.

By KD is commonly meant the equilibrium constant for the complex coming apart. Low values mean a tighter complex, high ones a looser complex. A word on the EC50: it is the concentration that produces a half-maximal response. Read a high EC50 as weaker potency.

The test system of test [1] is Tte-PreQ1 ab13_14_15 (RNA, riboswitch, abasic at 13, 14 and 15) CUGGGUCGCAGUNNNCCCAGUUAACAAAACAAG
Nature of the test: X-ray crystallography, 2.25 Å. The conditions noted are these: potassium sodium tartrate 100-300 mM; sodium citrate pH 5.6, ammonium sulfate 2.0-2.6 M, 20 °C.

Test [2] concerns Cy5-labeled Bsu PreQ1 aptamer (RNA, riboswitch) GCGGGAGAGGUUCUAGCUACACCCUCUAUAAAAAACUAAGGACGAGCUGUAUCCUUGGAUACGGCC
Nature of the test: Cy5 fluorescence intensity assay (text says ligand fluorescence). The conditions noted are these: 100 mM KCl, 1 mM MgCl2; 50 mM Tris pH 7.5, room temperature, 5% DMSO, 50 nM RNA.

The test system is the same in test [3]. Nature of the test: MST. The conditions noted are these: 100 mM KCl, 1 mM MgCl2, 50 mM Tris pH 7.5, room temperature, DMSO.
In test [4] the test system is L. rhamnosus PreQ1 (SHAPE-MaP) (RNA, riboswitch) GGGCCUUCGGGCCAAGGAACCGCCCCGCGCGCUUCCACGAUACUUAUUUCCUUUGAUCGUCGUUAUUACUGGCAAAGCCACAAAGGAGUCGAUCCGGUUCGCCGGAUCCAAAUCGGGCUUCGGUCCGGUUC
Briefly: SHAPE-MaP (2A3). The conditions noted are these: 100 mM KCl, 1 mM MgCl2.

The subject of test [5] is T. tengcongensis PreQ1 (SHAPE-MaP) (RNA, riboswitch) GGGCCUUCGGGCCAACUCACCUGGGUCGCAGUAACCCCAGUUAACAAAACAAGGGAGGUAAUUUUUCGAUCCGGUUCGCCGGAUCCAAAUCGGGCUUCGGUCCGGUUC
Nature of the test: SHAPE-MaP (2A3). The conditions noted are these: 100 mM KCl, 1 mM MgCl2; 50 mM Tris pH 7.5, 10 μM compound.

In test [6] the test system is S. pneumoniae PreQ1 (SHAPE-MaP) (RNA, riboswitch) GGGCCUUCGGGCCAACUUGGUGCUUAGCUUCUUUCACCAAGCAUAUUACACGCGGAUAACCGCCAAAGGAGAAUCGAUCCGGUUCGCCGGAUCCAAAUCGGGCUUCGGUCCGGUUC
Nature of the test: SHAPE-MaP (2A3). The conditions noted are these: 100 mM KCl, 1 mM MgCl2.

The test system of test [7] is Bsu PreQ1 RNA (MAGNA) (RNA, riboswitch) UCGGCGAUCUACGCAGCGACAUAAUAAGAGGUUCUAGCUACACCCUCUAUAAAAAACUAAUAACAACCACUUCCUAAUCUGUCAUCUUCUG
Nature of the test: magnetic force spectroscopy (MAGNA). The conditions noted are these: 100 mM KCl, 1 mM MgCl2; 50 mM HEPES pH 7.4, 1% DMSO, 22 °C; 500 nM called saturating.

For test [8], the system named is F. prausnitzii PreQ1 (SHAPE-MaP) (RNA, riboswitch) GGGCCUUCGGGCCAAGGAACGCUGAAAGAGCAACUUAGGAUUUUAGGCUCCCCGGCGUGUCUCGAACCAUGCCGGGCCAAACCCAUAGGGCUGGCGGUCCCUGUGCGGUCAAAAUUCAUCCGCCGGAGUAUUGUUAUCGAUCCGGUUCGCCGGAUCCAAAUCGGGCUUCGGUCCGGUUC
Briefly: SHAPE-MaP (2A3). The conditions noted are these: 100 mM KCl, 1 mM MgCl2.

Test [9] concerns B. subtilis PreQ1 (SHAPE-MaP) (RNA, riboswitch) GGGCCUUCGGGCCAAGCGGGAGAGGUUCUAGCUACACCCUCUAUAAAAAACUAAGGACGAGCUGUAUCCUUGGAUACGGCCUUUUUCGAUCCGGUUCGCCGGAUCCAAAUCGGGCUUCGGUCCGGUUC
Briefly: SHAPE-MaP (2A3). The conditions noted are these: 100 mM KCl, 1 mM MgCl2.

Test [10] concerns Tte-PreQ1 ab13_14_15 (RNA, riboswitch, abasic at 13, 14 and 15) CUGGGUCGCAGUNNNCCCAGUUAACAAAACAAG
Briefly: X-ray crystallography, 2.15 Å. The conditions noted are these: potassium sodium tartrate 100-300 mM; sodium citrate pH 5.6, ammonium sulfate 2.0-2.6 M, 20 °C.

Test [11] relates to Bsu PreQ1 RNA (MAGNA) (RNA, riboswitch) UCGGCGAUCUACGCAGCGACAUAAUAAGAGGUUCUAGCUACACCCUCUAUAAAAAACUAAUAACAACCACUUCCUAAUCUGUCAUCUUCUG
Briefly: magnetic force spectroscopy (MAGNA), median unfolding force. The conditions noted are these: 100 mM KCl, 1 mM MgCl2; 50 mM HEPES pH 7.4, 1% DMSO, 22 °C; from refolding force 456±258 μM.

The test system of test [12] is Cy5-labeled Bsu PreQ1 aptamer (RNA, riboswitch) GCGGGAGAGGUUCUAGCUACACCCUCUAUAAAAAACUAAGGACGAGCUGUAUCCUUGGAUACGGCC
Briefly: MST (Figure S1 legend); text says ligand fluorescence. The conditions noted are these: 100 mM KCl, 1 mM MgCl2; 50 mM Tris pH 7.5, room temperature, DMSO.

[13] abbreviates: 50 mM Tris pH 7.5, 10 μM compound.
Where [14] appears, read: 50 mM Tris pH 7.5, 150 μM compound.

Each structure is given as a SMILES string. Where only a bound is given, the exact number is not on record here.

With `Cc1nccc2c1[nH]c1cc(OCCN(C)C)ccc12`, the binding result in test [1] was “yes”. This compound also yielded a KD in test [2] of 104.4 ± 20 µM.

`COc1ccc2c(c1)Oc1ccc(N)cc1C(=O)N2` yielded a KD in test [3] of 18.3 ± 7.0 µM.

`COc1ccc2c(c1)NC(=O)c1cc(N)ccc1O2` displayed a KD in test [3] of 1.9 ± 0.2 µM.

`NCc1c[nH]c2nc(N)[nH]c(=O)c12`: the binding result in [4] (setting [13]), in test [5], in test [6] (setting [13]), in test [7], in test [8] (setting [13]) and in [9] (setting [13]) was “yes” throughout.

For `CN(C)CCOc1ccc2oc3ccccc3c(=O)c2c1`, the binding entry in test [4] (setting [14]), in [10], in [6] (setting [14]), in test [8] (setting [14]) and in test [9] (setting [14]) was “yes” each time. Besides, the EC50 in [11] was 394 ± 157 µM.

Take `NC(=O)COc1ccc2oc3ccccc3c(=O)c2c1`: the dissociation constant (KD) in [12] is reported as > 500 µM.

The compound `CN(C)CCOc1ccc2sc3ccccc3c(=O)c2c1` returned a KD in test [3] of 58 ± 30 µM.

Consider `CNc1cc2c(=O)c3cc(O)ccc3oc2cn1`, for which, in test [3] (tested up to 500 μM), the binding result is “no”.
